Measured values: patent publication US10258607B2, “Method of increasing intratumoral pHe and reducing acid-mediated invasion” (H. Lee Moffitt Cancer Center and Research Institute, Inc., priority 2009, dated 2019)
“Also recorded” adds a separate entry of the source.

Tests used:
[1] = tested on: luciferase-expressing PC3M prostate cancer cells; experiment: In vivo experimental lung metastasis model, IEPA in drinking water; parameters: species or system mice
Procedure: FIG. 10 illustrates (A) the chemical structure of IEPA and (B) an experimental timetable. For the experiment mice (n=10) were started on 200 mM IEPA, or tap water (n=10) at time 0. Four days later 5×10^6 PC3M cells were injected intravenously in to the mice. Images were acquired weekly, and animal were euthanized at week 6 post-injections
Mice were imaged in a ventral view weekly for 6 weeks using the in vivo Imaging System (IVIS, Xenogen).
A region of interest (ROI) was manually selected over the signal intensity. The area of the ROI was kept constant and the intensity was recorded as maximum [photons/sec].
In these experiments, 10 mice were provided with ad libidum 200 mM of 2-imidazole-1-yl-3-ethoxycarbonylpropionic acid (IEPA) in their drinking water and 10 mice were maintained on water.
Four days after initiation of therapy, all animals were injected with luciferase-expressing PC3M prostate cancer cells. […] NMR in biomedicine 2002; 15(2):114-9; van Sluis R, et al., In vivo imaging of extracellular pH using 1H MRSI. Magn Reson Med 1999; 41(4):743-50].

[2] = high doses; cited from earlier work
[3] = tested on: spontaneous and experimental metastases; details: chronic consumption of sodium bicarbonate solution; cited from earlier work
[4] = tested on: widely metastatic renal cancer; experiment: Case report: patient with metastatic renal cancer
[5] = 25-50 grams daily, greater than 1 year, patients with renal tubular acidosis and sickle cell anemia; cited from earlier work
[6] = cited from earlier work
[7] = self-administered 40 grams of NaHCO3 daily, scans Dec. 5, 2007 and Apr. 18, 2008

CCOC(=O)CC(C(=O)O)n1ccnc1 (stereo not drawn) [IEPA, 2-imidazole-1-yl-3-ethoxycarbonylpropionic acid]
animal weight / weight gain and grooming behavior vs controls ([1]; 200 mM IEPA in drinking water): not different from controls | lung metastases compared to control group ([1]; 200 mM IEPA in drinking water from 4 days before i.v. injection of 5×10^6 PC3M cells, weekly imaging for 6 weeks, p<0.02): significantly fewer lung metastases; also recorded: significantly inhibits lung metastasis | mean in vivo photon count, whole animal and lungs, vs tap water group ([1]; 200 mM IEPA in drinking water, p<0.002 Wilcoxon two sample test): significantly different | toxicity in vivo [2]: non-toxic at high doses

O=C([O-])O.[Na+] [NaHCO3, sodium bicarbonate]
spontaneous and experimental metastases [3]: inhibited | tolerability ([4]; "very high" bicarbonate administration for nearly 1 year): without complication | duration of stable tumor ([4]; person, approximately 60 grams of bicarbonate in water daily with vitamins, supplements, no conventional therapy): 10 months | central necrosis of tumors on follow-up CT scan [4, 7]: no longer present | liver lesions on CT scans [4, 7]: some of the liver lesions have increased in size, some have decreased in size, and some have remained stable | adverse effects on chronic administration [5]: without adverse affects

CCN(CC)CCNC(=O)c1c(C)[nH]c(/C=C2\C(=O)Nc3ccc(F)cc32)c1C [Sutent]
tumor response ([4]; first line treatment of liver metastatic disease): the tumor progressed

C[N+](C)(C)CCN [cholamine chloride]
pKa [6]: 7.1

NCCCC[C@H](N)C(=O)O [free-base lysine, L-lysine]
pKa1 ([6]; L-lysine with three pKa's): 2.20 | pKa2 ([6]; L-lysine with three pKa's): 8.90 | pKa3 ([6]; L-lysine with three pKa's): 10.28
